Here are results for 3 molecules from PMC5120204, “Identification of an orally active small-molecule PTHR1 agonist for the treatment of hypoparathyroidism” (Nature Communications, 2016).

Read-outs that look alike come from different tables or passages of the source.

One data set deals with T1, hPTHR2 (Homo sapiens, UniProt P49190).
T1 construct: expressed in transfected cells; host or cells: COS-7 (transient)
The data set can be described thus: cAMP production assay in COS-7 cells expressing hPTHR2. The conditions noted are these: COS-7 cells expressing human PTHR2. Type of data set: cell-based. As to the method: (§1) COS-7 cells (ATCC) were seeded into a 96-well flat-bottomed plate (1.4 × 10^4 cells per 100 μl per well) and incubated overnight. The next day, the COS-7 cells were transfected by adding 10 μl of a mixture of hPTHR1, hPTHR2 or mutant hPTHR1 plasmid, rat PTHR1 or rat PTHR2 plasmid, or empty vector (0.1 μg per well), FuGENE HD Transfection Reagent (0.4 μl per well, Promega), and Opti-MEM I Reduced Serum Medium (10 μl per well, Life Technologies) to each well. […] The plate was placed in a 37 °C constant-temperature water bath for 20 min to allow the reaction to proceed. After incubation, the liquid in the wells was discarded, the wells were washed with the assay medium (100 μl per well), and the plate was frozen on dry ice. Next, 40 μl of 50 mmol l^−1 HCl was added to each well, and the plate was stored in a freezer set at ≤−20 °C. The cAMP concentrations were measured by using a cAMP EIA kit (GE Healthcare). EC50 values were determined from three independent experiments in duplicate by a non-linear regression Emax model (JMP ver.9.0.2, SAS Institute). The geometric mean of the EC50 values obtained in three experiments in duplicate was calculated using Microsoft Office Excel 2007. […]
Background: Cyclic AMP is a second messenger, typically raised through Gs and lowered through Gi signalling.

A further data set has as its target T2, rat PTHR2 (Rattus norvegicus, UniProt P70555).
T2 construct: expressed in transfected cells; host or cells: COS-7 (transient)
Nature of the data set: cAMP production assay in COS-7 cells expressing rat PTHR2. Type of data set: cell-based. As to the method:
as §1

The test system of another data set is OVX rats. The data set can be described thus: Repeated administration study in OVX rats. Type of data set: in vivo, rat. The conditions noted are these: day 84, all treated rats. As to the method: OVX was carried out in 32-week-old female Crl:CD (SD) rats (Charles River Laboratories). Twelve weeks after surgery, lumbar vertebral BMD (L3–L5) was measured in vivo by dual-energy X-ray absorptiometry (DXA) using a DCS-600EX-IIIR bone densitometer (Hitachi Aloka Medical), and the rats were divided into five groups, each with a similar mean value of BMD and body weight. Sample sizes were determined based on previous experiments with hPTHs and a published study with ibandronate and eldecalcitriol in our laboratories[42] (n=7–10). Then, OVX rats were treated once daily intravenously (vehicle or PCO371 at 3 or 10 mg kg^−1) or orally (vehicle or PCO371 at 30 mg kg^−1) or subcutaneously [vehicle or hPTH(1–34) at 0.9 nmol kg^−1] for 12 weeks. Ten to twelve OVX rats were assigned to each dose group. Nine rats were assigned to the sham-operated control group and were treated with vehicle for PCO371. Ten per cent DMSO (Wako Pure Chemical Industries)/10% Kolliphor EL (Sigma-Aldrich) in 10% hydroxypropyl-β-cyclodextrin (HPCD; Nihon Shokuhin Kako)/0.752% glycine (Wako Pure Chemical Industries) buffer was used as vehicle for PCO371, and phosphate-citrate buffer (pH 6.0) was used as vehicle for hPTH(1–34). To label bone-forming surfaces, tetracycline ([…], Nippon Zenyaku Kogyo) was subcutaneously injected on Day 78 and calcein (8 mg kg^−1, Dōjindo Laboratories) was subcutaneously injected on day 83. Under isoflurane anaesthesia, jugular vein blood was collected immediately before and at 1, 2, 6, 10 and 24 h after administration on day 82 to measure plasma concentration of PCO371 or on day 84 to measure serum Ca levels (o-CPC method, Wako Pure Chemical Industries). Urine was collected for 24 h from metabolic cages on days 84–85 to measure urinary collagen type 1 cross-linked C-telopeptide (CTX) by using the RatLaps ELISA System (Immunodiagnostic Systems). Under isoflurane anaesthesia, blood was collected on day 85 from the abdominal aorta to measure serum osteocalcin level by using the Rat Osteocalcin ELISA System (GE Healthcare). The lumbar spine and bilateral femurs were excised after 12 weeks of treatment. The first lumbar vertebra (L1), 3rd to 5th lumbar vertebrae (L3–L5), the right femur, and the right tibia were preserved in 70% ethanol to measure bone histomorphometry and BMD (DCS-600EX; Hitachi Aloka Medical). Measurement of bone histomorphometry was performed by the Ito Bone Histomorphometry Institute (Niigata, Japan). The second lumbar vertebra (L2) was wrapped in saline-soaked gauze and stored at −80 °C until measurement. Ultimate compressive strength (N) of the L2 vertebra was measured by using a mechanical testing machine (TK-252C; Muromachi Kikai).

For data set [1] the following is noted: human; ref Calcifi Tissue Int 2010 87:485, J Bone Miner Res 2013 28:2232, J Pharmcol Exp Ther 2009 330:169; cited from earlier work.
The next data set is described as follows: in vivo. As to conditions: female, Crl:CD(SD), rat, sc.
Data set [2] is described as follows: Pharmacokinetics in normal rats.
Method: (§2) PCO371 was administered at a dose of 2, 6 or 18 mg kg^−1 orally to 7-week-old normal female rats (RccHan: WIST, JLA; three rats for each dose group), or at a dose of 2, 6 or 18 mg kg^−1 orally to 7-week-old female TPTX rats [Crl:CD(SD), Charles River Laboratories; three TPTX rats for each dose group] or at 30 mg kg^−1 orally or 3, 10 mg kg^−1 intravenously to 55-week-old OVX rats as described above. Blood samples were collected at 15 and 30 min, and 1, 2, 4, 8 and 24 h after administration. […] The concentrations of plasma PCO371 were determined by liquid chromatography–tandem mass spectrometry [LC-MS/MS (API-3200 (AB SCIEX), detection limit: 1 ng ml^−1).
The subject of the next data set is TPTX rats. Nature of the data set: Repeated administration study in TPTX rats, study 2 (add-on to alfacalcidol). Type of data set: in vivo, rat. The conditions noted are these: alone at 75 ng kg^−1 once-daily oral, 4 weeks. As to the method: TPTX was carried out in 6-week-old female Crl:CD (SD) rats (Charles River Laboratories). Rats with serum Ca levels of <8.0 mg dl^−1 at 5 days after surgery were used in the following experiments. The rats were divided into four groups both in study 1 and 2, each with a similar mean value of serum Ca levels and body weight. Sample sizes were determined as described in the above single administration study. To evaluate the calcemic effects of PCO371 and hPTHs, we defined a target therapeutic range for serum Ca of 7.6–11.2 mg dl^−1, which corresponds to the low normal to normal range of serum Ca levels.
TPTX rats were orally treated once daily (vehicle; alfacalcidol (Chugai Pharma Manufacturing) at 38 or 75 ng kg^−1; or alfacalcidol at 38 ng kg^−1 plus PCO371 at 6 mg kg^−1) for 4 weeks. Five or six TPTX rats were assigned to each dose group. The vehicle for alfacalcidol was medium-chain triglyceride (Chugai Pharma Manufacturing). Under isoflurane anaesthesia, jugular vein blood was collected immediately before and at 6 and 10 h after administration to measure serum Ca levels on day 1 (the first dosing day), 8, 14, 22 and 28. Urine was collected for 24 h by using metabolic cages on days 28 and 29. Serum and urine Ca levels were measured in the same way as in the single-dosing study.

[3] abbreviates: female, Crl:CD(SD), rat, plasma, sc, 3 nmol/kg.

T1 sequence (P49190 25-550): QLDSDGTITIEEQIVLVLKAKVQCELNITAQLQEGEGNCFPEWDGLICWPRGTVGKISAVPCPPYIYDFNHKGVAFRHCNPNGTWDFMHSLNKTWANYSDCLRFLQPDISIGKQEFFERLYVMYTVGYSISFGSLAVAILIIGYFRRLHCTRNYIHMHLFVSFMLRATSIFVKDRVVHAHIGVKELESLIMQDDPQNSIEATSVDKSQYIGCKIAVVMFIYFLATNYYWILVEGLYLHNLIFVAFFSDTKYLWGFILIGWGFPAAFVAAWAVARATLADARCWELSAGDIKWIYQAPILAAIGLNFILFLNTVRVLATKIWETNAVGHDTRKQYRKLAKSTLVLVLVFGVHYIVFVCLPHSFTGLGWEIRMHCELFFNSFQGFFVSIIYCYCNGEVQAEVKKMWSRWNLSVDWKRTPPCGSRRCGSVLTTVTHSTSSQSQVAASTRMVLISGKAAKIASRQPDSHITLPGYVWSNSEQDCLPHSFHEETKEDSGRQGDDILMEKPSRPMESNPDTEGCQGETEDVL
T2 sequence (P70555 25-546): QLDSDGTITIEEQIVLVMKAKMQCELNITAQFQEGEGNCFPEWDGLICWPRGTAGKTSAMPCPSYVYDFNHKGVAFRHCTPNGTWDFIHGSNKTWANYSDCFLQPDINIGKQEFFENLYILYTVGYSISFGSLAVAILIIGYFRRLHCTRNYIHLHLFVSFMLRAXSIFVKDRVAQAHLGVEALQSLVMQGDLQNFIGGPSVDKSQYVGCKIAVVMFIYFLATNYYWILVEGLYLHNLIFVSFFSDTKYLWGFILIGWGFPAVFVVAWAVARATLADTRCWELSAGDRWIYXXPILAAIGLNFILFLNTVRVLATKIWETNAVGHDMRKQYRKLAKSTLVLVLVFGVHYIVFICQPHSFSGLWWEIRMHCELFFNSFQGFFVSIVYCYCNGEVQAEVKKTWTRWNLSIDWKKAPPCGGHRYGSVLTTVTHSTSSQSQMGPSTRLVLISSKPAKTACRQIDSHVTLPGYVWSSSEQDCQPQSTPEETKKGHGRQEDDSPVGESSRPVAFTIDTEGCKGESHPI
Method for in vivo: as §2

As to “TIP39: tuberoinfundibular peptide of 39 residues, the cognate ligand for PTHR2 [reference compound]”, the cAMP production result with hPTHR2 and with rat PTHR2 was “showed an increase in cAMP production” throughout.

Consider `CC[C@H](C)[C@H](NC(=O)[C@H](CCC(=O)O)NC(=O)[C@H](CO)NC(=O)[C@@H](NC(=O)[C@@H](N)CO)C(C)C)C(=O)N[C@@H](CCC(N)=O)C(=O)N[C@@H](CC(C)C)C(=O)N[C@@H](CCSC)C(=O)N[C@@H](Cc1cnc[nH]1)C(=O)N[C@@H](CC(N)=O)C(=O)N[C@@H](CC(C)C)C(=O)NCC(=O)N[C@@H](CCCCN)C(=O)N[C@@H](Cc1cnc[nH]1)C(=O)N[C@@H](CC(C)C)C(=O)N[C@@H](CC(N)=O)C(=O)N[C@@H](CO)C(=O)N[C@@H](CCSC)C(=O)N[C@@H](CCC(=O)O)C(=O)N[C@@H](CCCN=C(N)N)C(=O)N[C@H](C(=O)N[C@@H](CCC(=O)O)C(=O)N[C@@H](Cc1c[nH]c2ccccc12)C(=O)N[C@@H](CC(C)C)C(=O)N[C@@H](CCCN=C(N)N)C(=O)N[C@@H](CCCCN)C(=O)N[C@@H](CCCCN)C(=O)N[C@@H](CC(C)C)C(=O)N[C@@H](CCC(N)=O)C(=O)N[C@@H](CC(=O)O)C(=O)N[C@H](C(=O)N[C@@H](Cc1cnc[nH]1)C(=O)N[C@@H](CC(N)=O)C(=O)N[C@@H](Cc1ccccc1)C(=O)O)C(C)C)C(C)C` [hPTH(1–34), reference compound], for which the “serum Ca” value in the data set with OVX rats is reported as “within the normal range”. The results for the Tmax in data set [1], in data set [2] (setting [3]) and in data set [2] (rat (Table 1)) were 30 min, 6 ± 6 min and 5 min, respectively. Besides, the values for the half-life in “in vivo” and in “in vivo” (3 nmol/kg) were 15 min and 18 ± 6 min, respectively. Besides, the AUC(0-inf) – broadly, the area under the concentration-time curve extrapolated to infinity – in data set [2] (setting [3]) is 0.99 ± 0.17 ng·h/mL. Moreover, the Cmax (usually the maximum level reached in the sampled fluid or tissue) in data set [2] (setting [3]) was 2.42 ± 0.53 ng/mL; in data set [2] (rat, plasma, sc, 0.9 nmol/kg), about 0.125 ng/mL. The bioavailability – broadly, the share of a dose that reaches the circulation, judged against a reference dose that is usually intravenous – in data set [2] (setting [3]) was 22%.

Take `C=C1/C(=C\C=C2/CCC[C@]3(C)[C@@H]([C@H](C)CCCC(C)C)CC[C@@H]23)C[C@@H](O)C[C@@H]1O` [Alfacalcidol, 1α-hydroxycholecalciferol, reference compound]: in the data set on TPTX rats, the “serum Ca” value is “normalized the serum Ca to within or above the target therapeutic range” and the “urinary Ca excretion” value is “considerable urinary Ca excretion”.
